# In patent US10159685B2, “Vascular calcification” (Cambridge Enterprise Limited, priority 2016, dated 2018):
# How the values were obtained:
# [1] = tested on: bovine vascular smooth muscle cells (bVSMCs); type: cell-based; settings: at the concentrations tested (0.5 to 100 μM), 7 days
# Experimental: The toxicity of the identified compounds to bovine VSMCs was measured using the MTT assay, which measures the activity of dehydrogenase enzymes of live cells. This assay can pick up both cell death and proliferation.
# Bovine VSMCs were seeded in 96 well plates and cultured in M199/20% FCS for 1 day. Then, the cells were incubated with inhibitor concentrations from 0.5 to 100 μM (in M199 medium+5% FBS). The cells were incubated with the inhibitors for 7 days; every 2-3 days the medium −/+inhibitors was exchanged. Then, the MTT assay was performed. The stock vehicle DMSO was tested at corresponding concentrations to the inhibitors at 0.1% DMSO or less.
# [2] = tested on: bovine vascular smooth muscle cells (bVSMCs); assay: o-Cresolphthalein Ca2+ assay, bVSMC GAD calcification model (Examples 4 and 5); type: cell-based
# Experimental: For the bVSMCs a GAD medium (10 mM β-glycerophosphate/0.1 mM L-ascorbic acid-2-phosphate/10 nM dexamethasone) model was used to induce mineralization in bVSMCs. Accordingly, cells were seeded in tissue culture plates using M199/20% FCS culture medium and cultured overnight. The next day, cells were treated either with medium only (M199/5% FBS)+/−inhibitors, or with the GAD-medium (10 mM β-glycerophosphate/0.1 mM L-ascorbic acid-2-phosphate/[…] dexamethasone)+/−inhibitors.
# Medium+/−inhibitors was exchanged every 2-3 days. […]
# The o-Cresolphthalein assay is a spectrophotometric method for measuring Ca^2+-concentrations in cell/tissue lysates. Following the calcification experiments, cells are briefly washed to remove medium and 100 […]1 of 0.1 N HCl is added to each well to dissolve any mineral deposits. Then, the Ca^2+-concentration of the samples is measured spectrophotometrically (at 570 nm) in the o-cresolphthalein assay with the help of a CaCl2 standard curve in a concentration range of ˜0.02-270 µg Ca^2+/ml.
# The commercial BioRad DC protein assay is based on the Lowry method, aka reaction of proteins with a copper-tartrate complex and subsequent reaction with Folin's reagent. Following the calcification experiment, cells are briefly washed to remove medium and 100 µl of solubilisation solution (0.1 M NaOH/1% SDS/DIW) is added to each well to lyse the cells. The protein concentrations of the lysates are subsequently determined in the BioRad DC assay as per supplier's instructions using BSA (bovine serum albumin) as standard.
# The in vitro model is the same as the model used in example 4; bovine vascular smooth muscle cells (bVSMCs) cultured so that they produce extracellular matrix, with the addition of the GAD medium (10 mM β-glycerophosphate/0.1 mM L-ascorbic acid-2-phosphate/10 nM dexamethasone).
# As above, cells were treated either with medium only (“no-additions”; NA)+/−inhibitors, or with the GAD-medium+/−inhibitors. The inhibitors used were PJ34 and minocyclin (MC) at 10 μM, 1 μM and 0.1 μM.
# The methodology was the same as that described in example 4.
# [3] = tested on: bovine vascular smooth muscle cells (bVSMCs); assay: MTT cell viability assay, bVSMCs with or without GAD medium, 7 or 9 days (Example 5); type: cell-based
# Experimental: As above, cells were treated either with medium only (“no-additions”; NA)+/−inhibitors, or with the GAD-medium+/−inhibitors. […] Additionally, an MTT assay was performed as a measure of cell viability/proliferation. Bovine VSMCs were seeded in 96 well plates and cultured in M199/20% FCS for 1 day. Then, the cells were incubated with inhibitor concentrations of 10 μM, 1 μM and 0.1 μM (in M199 medium+5% FBS). […] Then, the MTT assay was performed.
# [4] = human, in vivo
# [5] = cited from earlier work
smiles,measurement,setting,value
CN(C)c1ccc(O)c2c1C[C@H]1C[C@H]3[C@H](N(C)C)C(O)=C(C(N)=O)C(=O)[C@@]3(O)C(O)=C1C2=O [minocycline],"Toxicity to bVSMCs (MTT assay, in words)",[1],non-toxic
same,inhibition at 1 µM,"[2]; Bos taurus, 216 h, bVSMCs, GAD medium, nine days, 1 μM, read-out: Reduction of Ca^2+ deposition compared to no potential inhibitor",~38%
same,inhibition at 10 µM,"[2]; Bos taurus, 216 h, bVSMCs, GAD medium, nine days, 10 μM, read-out: Reduction of Ca^2+ deposition compared to no potential inhibitor",~81%
same,Concentration at which calcification is inhibited (as low as),"[2]; bVSMC GAD model, Example 5",1 µM
same,"Ca^2+ concentration found in bVSMCs, mean","[2]; nine days, no GAD, 0.1 μM",1.484 μg calcium/ml
same,"Ca^2+ concentration found in bVSMCs, mean","[2]; nine days, no GAD, 1 μM",1.327 μg calcium/ml
same,"Ca^2+ concentration found in bVSMCs, mean","[2]; nine days, no GAD, 10 μM",0.925 μg calcium/ml
same,"Ca^2+ concentration found in bVSMCs, mean","[2]; nine days, with GAD, 0.1 μM",26.16 μg calcium/ml
same,"Ca^2+ concentration found in bVSMCs, mean","[2]; nine days, with GAD, 1 μM",21.35 μg calcium/ml
same,"Ca^2+ concentration found in bVSMCs, mean","[2]; nine days, with GAD, 10 μM",3.74 μg calcium/ml
same,"Ca^2+ concentration found in bVSMCs, mean","[2]; seven days, no GAD, 0.1 μM",0.654 μg calcium/ml
same,"Ca^2+ concentration found in bVSMCs, mean","[2]; seven days, no GAD, 1 μM",0.595 μg calcium/ml
same,"Ca^2+ concentration found in bVSMCs, mean","[2]; seven days, no GAD, 10 μM",0.523 μg calcium/ml
same,"Ca^2+ concentration found in bVSMCs, mean","[2]; seven days, with GAD, 0.1 μM",1.79 μg calcium/ml
same,"Ca^2+ concentration found in bVSMCs, mean","[2]; seven days, with GAD, 1 μM",2 μg calcium/ml
same,"Ca^2+ concentration found in bVSMCs, mean","[2]; seven days, with GAD, 10 μM",2.38 μg calcium/ml
same,Cell viability (%) mean,"[3]; nine days, no GAD, 1 μM",96.64%
same,Cell viability (%) mean,"[3]; nine days, no GAD, 10 μM",105.1%
same,Cell viability (%) mean,"[3]; nine days, with GAD, 0.1 μM",74.53%
same,Cell viability (%) mean,"[3]; nine days, with GAD, 1 μM",72.42%
same,Cell viability (%) mean,"[3]; nine days, with GAD, 10 μM",105.89%
same,Drop off in formazan production (MTT) in the GAD-treatment group,"[3]; nine days, with GAD, 10 μM",not observed
same,Cell viability (%) mean,"[3]; seven days, no GAD, 0.1 μM",94.56%
same,Cell viability (%) mean,"[3]; seven days, no GAD, 1 μM",91.09%
same,Cell viability (%) mean,"[3]; seven days, no GAD, 10 μM",95.49%
same,Cell viability (%) mean,"[3]; seven days, with GAD, 1 μM",96.84%
same,Cell viability (%) mean,"[3]; seven days, with GAD, 10 μM",102.07%
same,dosage needed to reach the concentration of 0.46 micrograms/mL,[4],approximately 20 mg
same,maximum concentration (Cmax) in a patient's bloodstream,[5]; 50 mg oral dose,0.65 micrograms/mL
same,half-life in the body,[5]; in vivo,approximately 12 hours
